In general, TGI refers to the concentration giving total growth inhibition. Lower therefore signals more potent growth arrest.

This passage reports TGI results from PubChem BioAssay (NCI).

Among the test systems are SK-MEL-2 melanoma; UACC-62 melanoma; OVCAR-4 ovarian; SK-OV-3 ovarian; NCI-H23 lung; HOP-92 NSCLC; A498 renal; HCC-2998 colon; HL-60(TB) leukemia; BT-549 breast.
Experiment in all cases: DTP human tumour cell line panel, 48 h

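96-well plates; 48 h exposure; 5 concentrations. Endpoints by linear interpolation between flanking doses. Not reached: highest tested concentration assigned. The concentration for full growth arrest is given as TGI.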

Consider `CC(=O)CC(O)(C(F)(F)Cl)C(F)(Cl)Cl` (stereo not drawn), for which the TGI in the assay on SK-MEL-2 melanoma, in the assay with UACC-62 melanoma, with OVCAR-4 ovarian, in the assay with SK-OV-3 ovarian, with NCI-H23 lung and in the assay with HOP-92 NSCLC was greater than 10 µM throughout. Also, the TGI in the assay with A498 renal, with HCC-2998 colon and in the assay with HL-60(TB) leukemia was greater than 10 µM each time.
In the case of `COC1=CC(=O)[C@@]2(C)C(C)[C@H](c3ccccc3)[C@H]2C1=O` (stereo partly drawn), the TGI in the assay with SK-MEL-2 melanoma, in the assay with UACC-62 melanoma, in the assay with OVCAR-4 ovarian, in the assay on SK-OV-3 ovarian, in the assay on NCI-H23 lung and with HOP-92 NSCLC was greater than 100 µM in each case. The TGI with A498 renal, in the assay on HCC-2998 colon and in the assay with HL-60(TB) leukemia was greater than 100 µM throughout.
For `O=C1OCOC2(CCCC2)C1c1ccccc1` (stereo not drawn), the TGI in the assay with SK-MEL-2 melanoma, in the assay with UACC-62 melanoma, in the assay on OVCAR-4 ovarian, in the assay on SK-OV-3 ovarian, with NCI-H23 lung and in the assay on HOP-92 NSCLC was greater than 100 µM throughout. Further, the TGI with A498 renal, with HCC-2998 colon and with HL-60(TB) leukemia was greater than 100 µM throughout.
On to `CCn1c(=O)c2nc(SC)sc2n(-c2ccccc2)c1=S`, for which the TGI was greater than 100 µM in the assay on SK-MEL-2 melanoma; 97.6 µM in the assay with UACC-62 melanoma; greater than 100 µM in the assay on OVCAR-4 ovarian; greater than 100 µM in the assay on SK-OV-3 ovarian; greater than 100 µM with NCI-H23 lung; greater than 100 µM with HOP-92 NSCLC. The values for the TGI in the assay with HCC-2998 colon and in the assay with HL-60(TB) leukemia were greater than 100 µM and 19.9 µM, respectively.
Turning to `O=[N+]([O-])C(/C=C(\Cl)[N+](=O)[O-])=C(N1CCOCC1)N1CCOCC1`, the total growth inhibition concentration (TGI) in the assay on SK-MEL-2 melanoma is greater than 100 µM; with UACC-62 melanoma, greater than 100 µM; with OVCAR-4 ovarian, 53.9 µM; with SK-OV-3 ovarian, greater than 100 µM; with NCI-H23 lung, greater than 100 µM; in the assay on HOP-92 NSCLC, 76.4 µM. Moreover, the TGI with A498 renal was 51.5 µM; in the assay on HCC-2998 colon it was 43 µM; with HL-60(TB) leukemia it was 36.8 µM.
Consider `N#C/C(=C/c1ccc([N+](=O)[O-])o1)c1ccccc1`, for which the TGI in the assay on SK-MEL-2 melanoma, in the assay with UACC-62 melanoma, with OVCAR-4 ovarian, in the assay on SK-OV-3 ovarian, in the assay on NCI-H23 lung and in the assay with HOP-92 NSCLC was greater than 100 µM in each case. Further, the TGI with HCC-2998 colon and in the assay with HL-60(TB) leukemia was greater than 100 µM in each case.
With `Cc1cc2nc3c(N)nn(CCCN(C)C)c3nc2cc1C`, the TGI with UACC-62 melanoma, in the assay with OVCAR-4 ovarian, in the assay on SK-OV-3 ovarian, with NCI-H23 lung, in the assay on A498 renal and in the assay on HCC-2998 colon was greater than 100 µM throughout. The compound further came in with a TGI in the assay with BT-549 breast greater than 100 µM.
Regarding `Cc1ccc2c(c1)CC1(Cc3cc(C)ccc3C1=O)C2=O`, the TGI in the assay with SK-MEL-2 melanoma, in the assay with OVCAR-4 ovarian, in the assay on SK-OV-3 ovarian, in the assay with NCI-H23 lung, in the assay on HOP-92 NSCLC and in the assay with A498 renal was greater than 100 µM in each case. In addition, the TGI with HCC-2998 colon and with HL-60(TB) leukemia was greater than 100 µM throughout.
On to `O=C1C=C2SC3C[C@@]24CC1(O)[N+]1=c2c4c(c(O)c4c2=C(C=N4)CC1)N3`, for which the concentration for total growth inhibition (TGI) in the assay with SK-MEL-2 melanoma came to 2.77 µM; with UACC-62 melanoma, 1.51 µM; in the assay on OVCAR-4 ovarian, 2.53 µM; in the assay on SK-OV-3 ovarian, 3.78 µM; with NCI-H23 lung, 2.71 µM; with HOP-92 NSCLC, 2.67 µM. Also, the TGI in the assay on A498 renal was determined as 3.33 µM; in the assay with HL-60(TB) leukemia, 0.534 µM.
Consider `O=[N+]([O-])c1ccc(N=P(c2ccccc2)(c2ccccc2)c2ccccc2)n2nnnc12`, for which the TGI in the assay with SK-MEL-2 melanoma is greater than 100 µM; in the assay with UACC-62 melanoma it was greater than 100 µM; in the assay with OVCAR-4 ovarian, 90.3 µM; in the assay on SK-OV-3 ovarian, 95.8 µM; in the assay with NCI-H23 lung, greater than 100 µM; with HOP-92 NSCLC it was 67.5 µM. In addition, the TGI in the assay with A498 renal and with HL-60(TB) leukemia was greater than 100 µM throughout.
In the case of `CC(=O)OC1CCC2(C)C(CCC3C2CCC2(C)C(c4ccc(=O)oc4)C(OC(C)=O)CC32O)C1` (stereo not drawn), the total growth inhibition concentration (TGI) in the assay with SK-MEL-2 melanoma turned out to be 0.0911 µM; in the assay with UACC-62 melanoma it was 0.0506 µM; with OVCAR-4 ovarian, 0.0253 µM; in the assay with SK-OV-3 ovarian it was 0.103 µM; with NCI-H23 lung it was 0.0296 µM; in the assay with HOP-92 NSCLC, 0.0721 µM. The total growth inhibition concentration (TGI) in the assay with A498 renal is 0.161 µM; with HCC-2998 colon, 0.153 µM; with HL-60(TB) leukemia, 0.114 µM.
Regarding `CCOC(=O)c1c(NS(=O)(=O)c2ccccc2)sc2c1CCCC2`, the TGI with SK-MEL-2 melanoma, with UACC-62 melanoma, in the assay with NCI-H23 lung, in the assay with A498 renal, in the assay with HL-60(TB) leukemia and in the assay on BT-549 breast was greater than 100 µM each time.
`Cc1ccc(-c2ccc3c(c2)Sc2ccccc2O3)n1C`: the TGI was 4.26 µM with SK-MEL-2 melanoma; greater than 100 µM in the assay on OVCAR-4 ovarian; greater than 100 µM in the assay on SK-OV-3 ovarian; greater than 100 µM in the assay with NCI-H23 lung; greater than 100 µM with HOP-92 NSCLC; 34 µM with A498 renal. In addition, the figures for the TGI in the assay on HCC-2998 colon and with HL-60(TB) leukemia were 0.625 µM and 0.261 µM, respectively.
For `O=C1CCNC/C1=C\c1ccccc1`, the TGI was greater than 100 µM with SK-MEL-2 melanoma; 34.3 µM in the assay on UACC-62 melanoma; 31.3 µM in the assay with OVCAR-4 ovarian; greater than 100 µM in the assay with SK-OV-3 ovarian; 34.4 µM with NCI-H23 lung; greater than 100 µM in the assay with A498 renal. Further, the figures for the TGI in the assay on HCC-2998 colon and with HL-60(TB) leukemia were 42.8 µM and 47.7 µM, respectively.
Regarding `CCCC(O)c1ccc2[nH]c3c(C)cc([N+](=O)[O-])c(C)c3c2c1` (stereo not drawn), the TGI in the assay on SK-MEL-2 melanoma, in the assay on OVCAR-4 ovarian, in the assay on NCI-H23 lung, in the assay with HCC-2998 colon and in the assay with HL-60(TB) leukemia was greater than 100 µM each time.
As to `O=C(CC(C(=O)c1ccsc1)c1cccs1)c1cccs1` (stereo not drawn), the TGI in the assay with SK-MEL-2 melanoma, in the assay on UACC-62 melanoma, with OVCAR-4 ovarian, in the assay with SK-OV-3 ovarian, in the assay on NCI-H23 lung and with HOP-92 NSCLC was greater than 100 µM in each case. Moreover, the total growth inhibition concentration (TGI) in the assay with A498 renal, in the assay on HCC-2998 colon and with HL-60(TB) leukemia was greater than 100 µM throughout.
